From US11649255B2, “Indazoles as hematopoietic progenitor kinase 1 (HPK1) inhibitors and methods using same” (1st Biotherapeutics, Inc., priority 2020, dated 2023)

Target: recombinant human HPK1 (Homo sapiens (Human), UniProt Q92918)
Experiment: HPK1 kinase assay (ADP-Glo)
Format: biochemical
Conditions: 25 μM ATP, MBP substrate
Summary of the method: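 Activity was read as ADP formed, detected by ADP-Glo luminescence after the reaction of 5 ng recombinant human HPK1 with MBP and ATP (stocks 0.5 μg/μl and 25 μM) for 40 min at 30 °C. Buffer was Tris pH 7.5 with MgCl2, BSA and DTT, with compound in 0.5% DMSO. IC50 came from inhibition curves.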

Sequence of recombinant human HPK1 (Q92918 whole entry): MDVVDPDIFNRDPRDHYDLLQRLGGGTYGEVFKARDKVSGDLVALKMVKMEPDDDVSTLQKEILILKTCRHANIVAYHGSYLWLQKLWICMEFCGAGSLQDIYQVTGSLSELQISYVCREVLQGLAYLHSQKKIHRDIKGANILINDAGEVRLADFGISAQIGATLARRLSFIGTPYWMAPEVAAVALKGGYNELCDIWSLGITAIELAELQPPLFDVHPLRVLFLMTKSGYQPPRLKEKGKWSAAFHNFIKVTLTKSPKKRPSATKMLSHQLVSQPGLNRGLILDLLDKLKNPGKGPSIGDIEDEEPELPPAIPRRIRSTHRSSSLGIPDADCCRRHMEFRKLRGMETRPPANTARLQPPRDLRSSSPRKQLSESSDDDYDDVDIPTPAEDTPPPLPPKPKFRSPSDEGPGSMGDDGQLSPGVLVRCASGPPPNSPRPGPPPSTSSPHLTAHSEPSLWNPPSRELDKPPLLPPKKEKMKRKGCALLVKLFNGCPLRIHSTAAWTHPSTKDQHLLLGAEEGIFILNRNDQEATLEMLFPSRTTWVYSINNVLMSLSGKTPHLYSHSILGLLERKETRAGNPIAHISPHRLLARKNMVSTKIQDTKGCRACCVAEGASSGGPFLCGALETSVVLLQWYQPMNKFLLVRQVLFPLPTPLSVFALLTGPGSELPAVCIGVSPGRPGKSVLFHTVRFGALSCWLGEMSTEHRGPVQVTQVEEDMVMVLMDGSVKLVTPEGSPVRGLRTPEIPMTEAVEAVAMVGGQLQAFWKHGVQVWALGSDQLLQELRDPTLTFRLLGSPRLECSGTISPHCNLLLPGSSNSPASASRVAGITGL

Question: For O=C(Nc1nc2ccc(-c3c(Cl)c(F)c(F)c4[nH]ncc34)nc2s1)[C@@H]1C[C@@H]1F [Example 208, (1S,2S)-N-(5-(5-chloro-6,7-difluoro-1H-indazol-4-yl)thiazolo[5,4-b]pyridin-2-yl)-2-fluorocyclopropane-1-carboxamide 2,2,2-trifluoroacetate], which IC50 is on record?
Answer: Its IC50 is under 100 nM.

Question: For O=C(Nc1cn2cc(-c3c(Cl)c(F)c(-n4cccc4)c4[nH]ncc34)ccc2n1)[C@@H]1C[C@@H]1F [Example 365, (1S,2S)-N-(6-(5-chloro-6-fluoro-7-(1H-pyrrol-1-yl)-1H-indazol-4-yl)imidazo[1,2-a]pyridin-2-yl)-2-fluorocyclopropane-1-carboxamide], which IC50 is on record?
Answer: Its IC50 is under 100 nM.

Question: Which IC50 does the source give for CC(=O)Nc1c(F)c(Cl)c(-c2ccc3nc(NC(=O)[C@@H]4C[C@@H]4F)sc3c2)c2cn[nH]c12 [Example 108, (1S,2S)-N-(6-(7-acetamido-5-chloro-6-fluoro-1H-indazol-4-yl)benzo[d]thiazol-2-yl)-2-fluorocyclopropane-1-carboxamide] here?
Answer: Its IC50 is under 100 nM.

Question: Which IC50 does the source give for C=Cc1cc(C)c(-c2ccn3nc(NC(=O)[C@@H]4C[C@@H]4F)cc3c2)c2cn[nH]c12 [Example 483, (1S,2S)-2-fluoro-N-(5-(5-methyl-7-vinyl-1H-indazol-4-yl)pyrazolo[1,5-a]pyridin-2-yl)cyclopropane-1-carboxamide] here?
Answer: The IC50 was under 100 nM.

Question: For C[C@@H](c1c(F)c(Cl)c(-c2ccc3nc(NC(=O)[C@@H]4C[C@@H]4F)cn3c2)c2cn[nH]c12)n1ncnn1 [Example 408, (1S,2S)-N-(6-(7-((S)-1-(2H-tetrazol-2-yl)ethyl)-5-chloro-6-fluoro-1H-indazol-4-yl)imidazo[1,2-a]pyridin-2-yl)-2-fluorocyclopropane-1-carboxamide], which IC50 is on record?
Answer: The IC50 was under 100 nM.

Question: With COC1CN(c2c(F)c(Cl)c(-c3ccn4nc(NC(=O)[C@@H]5C[C@@H]5F)cc4c3)c3cn[nH]c23)C1 [Example 624, (1S,2S)-N-(5-(5-chloro-6-fluoro-7-(3-methoxyazetidin-1-yl)-1H-indazol-4-yl)pyrazolo[1,5-a]pyridin-2-yl)-2-fluorocyclopropane-1-carboxamide] as the molecule, how does the IC50 read?
Answer: The IC50 was under 100 nM.

Question: CC(C)Oc1c(F)c(Cl)c(-c2ccn3nc(NC(=O)[C@@H]4C[C@@H]4F)cc3c2)c2cn[nH]c12 [Example 650, (1S,2S)-N-(5-(5-chloro-6-fluoro-7-isopropoxy-1H-indazol-4-yl)pyrazolo[1,5-a]pyridin-2-yl)-2-fluorocyclopropane-1-carboxamide] was tested. Which IC50 did it give?
Answer: Its IC50 is under 100 nM.

Question: CN(Nc1c(F)c(Cl)c(-c2ccc3nc(NC(=O)[C@@H]4C[C@@H]4F)sc3c2)c2cn[nH]c12)C(=O)OC(C)(C)C [Example 114, tert-butyl 2-(5-chloro-6-fluoro-4-(2-((1S,2S)-2-fluorocyclopropane-1-carboxamido)benzo[d]thiazol-6-yl)-1H-indazol-7-yl)-1-methylhydrazine-1-carboxylate] was tested. Which IC50 did it give?
Answer: The IC50 was 101 to 500 nM.

Question: How did the IC50 turn out when CNC(=O)c1c(F)c(Cl)c(-c2ccc3nc(NC(=O)[C@@H]4C[C@@H]4F)sc3c2)c2cn[nH]c12 [Example 127, 5-chloro-6-fluoro-4-(2-((1S,2S)-2-fluorocyclopropane-1-carboxamido)benzo[d]thiazol-6-yl)-N-methyl-1H-indazole-7-carboxamide] was run?
Answer: The IC50 was under 100 nM.

Question: How did the IC50 turn out when CS(=O)(=O)c1c(F)c(Cl)c(-c2ccc3nc(NC(=O)[C@@H]4C[C@@H]4F)sc3n2)c2cn[nH]c12 [Example 185, (1S,2S)-N-(5-(5-chloro-6-fluoro-7-(methylsulfonyl)-1H-indazol-4-yl)thiazolo[5,4-b]pyridin-2-yl)-2-fluorocyclopropane-1-carboxamide] was run?
Answer: The IC50 was 101 to 500 nM.

Question: For Nc1ccc2[nH]ncc2c1-c1ccc2nc(NC(=O)C3CC3)cn2c1 [Example 225, N-(6-(5-amino-1H-indazol-4-yl)imidazo[1,2-a]pyridin-2-yl)cyclopropanecarboxamide], which IC50 is on record?
Answer: Its IC50 is over 1000 nM.

Question: CC(=O)c1c(F)c(Cl)c(-c2ccc3nc(NC(=O)[C@@H]4C[C@@H]4F)cn3c2)c2cn[nH]c12 [Example 319, (1S,2S)-N-(6-(7-acetyl-5-chloro-6-fluoro-1H-indazol-4-yl)imidazo[1,2-a]pyridin-2-yl)-2-fluorocyclopropane-1-carboxamide] was tested. Which IC50 did it give?
Answer: Its IC50 is under 100 nM.

Question: Which IC50 does the source give for Cc1c(F)c(C(F)F)c2[nH]ncc2c1-c1ccc2nc(NC(=O)[C@@H]3C[C@@H]3F)cn2c1 [Example 343, (1S,2S)-N-(6-(7-(difluoromethyl)-6-fluoro-5-methyl-1H-indazol-4-yl)imidazo[1,2-a]pyridin-2-yl)-2-fluorocyclopropane-1-carboxamide] here?
Answer: Its IC50 is under 100 nM.

Question: O=C(CCO)Nc1c(F)c(Cl)c(-c2ccc3nc(NC(=O)[C@@H]4C[C@@H]4F)cn3c2)c2cn[nH]c12 [Example 369, (1S,2S)-N-(6-(5-chloro-6-fluoro-7-(3-hydroxypropanamido)-1H-indazol-4-yl)imidazo[1,2-a]pyridin-2-yl)-2-fluorocyclopropane-1-carboxamide] was tested. Which IC50 did it give?
Answer: Its IC50 is under 100 nM.

Question: For Cc1ccc2[nH]ncc2c1-c1ccc2nc(NC(=S)C3CC3)sc2c1 [Example 32, N-(6-(5-methyl-1H-indazol-4-yl)benzo[d]thiazol-2-yl)cyclopropanecarbothioamide], which IC50 is on record?
Answer: Its IC50 is 101 to 500 nM.

Question: How did the IC50 turn out when CC(=O)Nc1c(F)c(C)c(-c2ccc3nc(NC(=O)[C@@H]4C[C@@H]4F)cn3c2)c2cn[nH]c12 [Example 308, (1S,2S)-N-(6-(7-acetamido-6-fluoro-5-methyl-1H-indazol-4-yl)imidazo[1,2-a]pyridin-2-yl)-2-fluorocyclopropane-1-carboxamide] was run?
Answer: Its IC50 is 101 to 500 nM.

Question: How did the IC50 turn out when O=C(Nc1cc2cc(-c3c(Cl)c(F)c(N4CCSCC4)c4[nH]ncc34)ccn2n1)[C@@H]1C[C@@H]1F [Example 631, (1S,2S)-N-(5-(5-chloro-6-fluoro-7-thiomorpholino-1H-indazol-4-yl)pyrazolo[1,5-a]pyridin-2-yl)-2-fluorocyclopropane-1-carboxamide] was run?
Answer: Its IC50 is under 100 nM.

Question: Which IC50 does the source give for CC(C)(C#N)Nc1c(F)c(Cl)c(-c2ccn3nc(NC(=O)[C@@H]4C[C@@H]4F)cc3c2)c2cn[nH]c12 [Example 638, (1S,2S)-N-(5-(5-chloro-7-((2-cyanopropan-2-yl)amino)-6-fluoro-1H-indazol-4-yl)pyrazolo[1,5-a]pyridin-2-yl)-2-fluorocyclopropane-1-carboxamide] here?
Answer: Its IC50 is under 100 nM.

Question: For CSc1c(F)cc2[nH]ncc2c1-c1ccn2nc(NC(=O)[C@@H]3C[C@H]3F)cc2c1 [Example 572, (1S,2R)-2-fluoro-N-(5-(6-fluoro-5-(methylthio)-1H-indazol-4-yl)pyrazolo[1,5-a]pyridin-2-yl)cyclopropane-1-carboxamide], which IC50 is on record?
Answer: Its IC50 is under 100 nM.

Question: With CN1CCN(c2c(F)c(Cl)c(-c3ccc4nc(NC(=O)[C@@H]5C[C@@H]5F)cn4c3)c3cn[nH]c23)C1=O [Example 358, (1S,2S)-N-(6-(5-chloro-6-fluoro-7-(3-methyl-2-oxoimidazolidin-1-yl)-1H-indazol-4-yl)imidazo[1,2-a]pyridin-2-yl)-2-fluorocyclopropane-1-carboxamide] as the molecule, how does the IC50 read?
Answer: The IC50 was under 100 nM.

Question: How did the IC50 turn out when CSc1c(F)c(F)c2[nH]ncc2c1-c1ccn2nc(NC(=O)[C@H]3C[C@@H]3F)cc2c1 [Example 600, (1R,2S)-N-(5-(6,7-difluoro-5-(methylthio)-1H-indazol-4-yl)pyrazolo[1,5-a]pyridin-2-yl)-2-fluorocyclopropane-1-carboxamide] was run?
Answer: Its IC50 is under 100 nM.

Question: O=C(Nc1nc2ccc(-c3c(Cl)c(F)cc4[nH]ncc34)nc2s1)[C@@H]1C[C@@H]1F [Example 153, (1S,2S)-N-(5-(5-chloro-6-fluoro-1H-indazol-4-yl)thiazolo[5,4-b]pyridin-2-yl)-2-fluorocyclopropane-1-carboxamide] was tested. Which IC50 did it give?
Answer: Its IC50 is under 100 nM.

Question: Which IC50 does the source give for C#Cc1c(F)cc2[nH]ncc2c1-c1ccc2nc(NC(=O)[C@@H]3C[C@@H]3F)sc2c1 [Example 47, (1S,2S)-N-(6-(5-ethynyl-6-fluoro-1H-indazol-4-yl)benzo[d]thiazol-2-yl)-2-fluorocyclopropane-1-carboxamide] here?
Answer: Its IC50 is under 100 nM.

Question: COc1cc(C)c(-c2ccc3nc(NC(=O)[C@@H]4C[C@@H]4F)sc3c2)c2cn[nH]c12 [Example 96, (1S,2S)-2-fluoro-N-(6-(7-methoxy-5-methyl-1H-indazol-4-yl)benzo[d]thiazol-2-yl)cyclopropanecarboxamide] was tested. Which IC50 did it give?
Answer: The IC50 was under 100 nM.

Question: For CN(C)c1ccc(-c2ccc3nc(NC(=O)[C@@H]4C[C@@H]4F)cn3c2)c2cn[nH]c12 [Example 352, (1S,2S)-N-(6-(7-(dimethylamino)-1H-indazol-4-yl)imidazo[1,2-a]pyridin-2-yl)-2-fluorocyclopropane-1-carboxamide], which IC50 is on record?
Answer: The IC50 was 101 to 500 nM.

Question: CNNc1c(F)c(Cl)c(-c2ccc3nc(NC(=O)[C@@H]4C[C@@H]4F)sc3c2)c2cn[nH]c12 [Example 115, (1S,2S)-N-(6-(5-chloro-6-fluoro-7-(2-methylhydrazineyl)-1H-indazol-4-yl)benzo[d]thiazol-2-yl)-2-fluorocyclopropane-1-carboxamide] was tested. Which IC50 did it give?
Answer: Its IC50 is under 100 nM.

Question: With O=C(Nc1cc2cc(-c3c(Cl)c(F)cc4[nH]ncc34)ccn2n1)[C@@H]1C[C@@H]1F [Example 458, (1S,2S)-N-(5-(5-chloro-6-fluoro-1H-indazol-4-yl)pyrazolo[1,5-a]pyridin-2-yl)-2-fluorocyclopropane-1-carboxamide] as the molecule, how does the IC50 read?
Answer: The IC50 was under 100 nM.

Question: For CCN(CC)c1c(F)c(Cl)c(-c2ccc3nc(NC(=O)[C@@H]4C[C@@H]4F)cn3c2)c2cn[nH]c12 [Example 281, (1S,2S)-N-(6-(5-chloro-7-(diethylamino)-6-fluoro-1H-indazol-4-yl)imidazo[1,2-a]pyridin-2-yl)-2-fluorocyclopropane-1-carboxamide], which IC50 is on record?
Answer: The IC50 was under 100 nM.

Question: With CN(c1ncccn1)c1c(F)c(Cl)c(-c2ccc3nc(NC(=O)[C@@H]4C[C@@H]4F)cn3c2)c2cn[nH]c12 [Example 346, (1S,2S)-N-(6-(5-chloro-6-fluoro-7-(methyl(pyrimidin-2-yl)amino)-1H-indazol-4-yl)imidazo[1,2-a]pyridin-2-yl)-2-fluorocyclopropane-1-carboxamide] as the molecule, how does the IC50 read?
Answer: The IC50 was under 100 nM.

Question: CN(c1c(F)c(Cl)c(-c2ccn3nc(NC(=O)[C@@H]4C[C@@H]4F)cc3c2)c2cn[nH]c12)C1CCC(N)CC1 (stereo partly drawn) [Example 514] was tested. Which IC50 did it give?
Answer: Its IC50 is under 100 nM.
